Experimental findings from US7700651B2, “Preparations of phospholipids and pharmaceuticals containing 5-amino salicylic acid for the treatment of inflammatory bowel disease” (The Board of Regents of the University of Texas System, priority 2006, dated 2010) are described below.

Series [1] has as its system mice placed on 3% DSS in the drinking water to induce colitis. In words: DSS-induced colitis in mice, test formulations given in the diet. Type of series: in vivo, C57BL/6 mice. The following applies: 3% DSS for four days. As to the method:
Phosal 35 SB, a soy lecithin oil containing approximately 35 wt. % phosphatidylcholine (PC), was placed in glass beaker to which 5ASA (or a 5ASA containing pharmaceutical) was added under moderate heat, about 40° C., and stirring until a 1:1 weight ratio was attained. The resulting oil-based formulation was coated with a pH-sensitive polymer, e.g., MultiSal™, or Eudragrit®-S, to form polymer encapsulated micro-spheres of the 5ASA/PC composition. These encapsulated micro-spheres are formed so that the 5ASA and PC are released only when the drug reaches the distal gut, where the pH is 7 or above and the polymer coating degrades. […]
Groups of C57BL/6 mice were exposed to different diets and their daily food consumption (grams/day) were measured over a four day period of time. […]
Now, the 5ASA:PL formulations can be compared to 5ASA in treating the colitis type disorder in mice. […] The efficacy of the treating compositions were determined by measuring colon tissue weight per length.
Groups of mice were placed on drinking water comprising saline containing 3% DSS for four days to induce a colitis type disorder and then treated with the compositions of this invention. The appearance of blood as indicated by an increased hemoglobin content in the feces was measured to determine the efficacy of 5ASA versus the 5ASA:PL formulations. […]

Series [2] relates to rats with colitis induced by 4% dextran sodium sulfate (DSS) in drinking water. Nature of the series: Recovery from DSS-induced colitis in rats, 5ASA 50 mg/kg BID intragastrically for 3 days. Type of series: in vivo, Sprague Dawley male rats. As to the method:
The following experiments were designed to compare the efficacy of 5ASA versus 5ASA:PC formulations in treating rats that had been subjected to colitis induced by adding 4% dextran sodium sulfate (DSS) to their drinking water for over 5 days (5 day, 20 hours) and then returned to normal drinking water. The rats were then treated with 5ASA, in this experiment at a lower dose (50 mg/kg, BID) than that previously studied, in the absence or presence to a PL component for 3 days post DSS induced colitis.
Thirty two healthy male rats used in the study. […] Group 1 were given drinking water without added DSS. Groups 2-4 received drinking water containing 4% DSS for 6 days. At day 6, Group 2 received 1 mL saline BID intra gastrically. Group 3 received 5ASA (50 mg/Kg) BID intra gastrically. Group 4 received 5ASA (50 mg/Kg):Phosal 35SB:MCT oil (1:1:0.3), referred to heretofore as 5ASA:PC BID intra gastrically, where MCT=Medium Chain Triglyceride.
At day 9, the rats were euthanized and the following were measured: (a) hematocrit, (b) fecal hemoglobin, (c) colon weight/length, (d) colon myeloperoxidase (MPO), (e) colonic surface hydrophobicity and (f) colon histology.
In this study, rats were placed on regular drinking water (Group 1) or water containing 4% DSS and then intragastrically administered: saline (Group 2); 5ASA (Group 3) at a dose of 50 mg/kg BID); or 5ASA:PC (P35SB at 1:1 wt ratio) (Group 4) for 3 days at which time the following changes were seen.

The test system is the same in series [3]. In words: Recovery from DSS-induced colitis in rats, 5ASA 100 mg/kg b.i.d. intragastrically for 6 days. Type of series: in vivo, Sprague Dawley male rats. As to the method: Rats were placed on drinking water containing 4% dextran sodium sulfate (DSS) for 5 days and 20 hours to induce colitis after which they were returned to normal drinking water. The animals were then intragastrically administered twice daily for 6 subsequent days with: (a) saline (DSS control); (b) 5ASA at a dose of 100 mg/kg; (c) a 1:1 wt. ratio of 5ASA and Phosal 35 SB (an oil-based formulation); or (d) a 1:2 wt. ratio of 5ASA and Phospholipon 90G (an aqueous lipidic suspension) at the same dose of 5ASA, 100 mg/kg, b.i.d. The formulations (c) and (d) are phosphatidylcholine (PC) associated 5ASA formulations, where the PC and 5ASA are associated at the molecular level. These treatments are designed to compare the efficacy of 5ASA and two different PC:5ASA formulations.
At 1, 3 and 6 days, rats were euthanized and colonic tissue, blood and fecal matter were collected for biochemical and histological analyses to assess colonic inflammation and GI bleeding. A separate group of rats were not placed on DSS and served as “normal controls.”
Referring now to FIG. 8, changes in hematocrit during the 6 day recovery period were measured from the euthanized rats. Changes in hematocrit levels represent an indirect estimate of anemia and internal (GI) bleeding among the groups over the 6 day recovery period.
Colonic inflammation and injury were assessed by measuring a number of biochemical and histological indices. First, tissue edema were assessed by measuring tissue wet weight/unit length.
Colonic myeloperoxidase (MPO) activity, a biochemical marker of neutrophil infiltration into the tissue, was measured as another marker of inflammation.
Tissue histology was scored (under blinded conditions) for signs of injury and inflammation. To assess inflammation we scored the number of inflammatory cells in the lamina propia of the colonic submucosa using a scoring system from 1 (normal) to 4 (highly inflamed).
To assess colonic mucosal injury, a histological scoring system was used, where: 0=normal mucosa; 1=surface injury; 2=injury extending into the mid glandular region; 3=injury extending into the deep glandular region; and 4=injury extending into the serosal (muscle) layer.

The next series relates to C57BL/6 mice. In words: Induction of colitis in mice by increasing DSS concentrations in drinking water for 4 days. Type of series: in vivo. Particulars: 0% to 4% DSS in drinking water, four days. The text has this: Groups of four C57BL/6 mice were exposed to differing amount of dextran sodium sulfate (DSS) in their drinking water for a four day period of time. The mice were then euthanized and colon tissue weight per length measurements for each group of mice were made.
Groups of C57BL/6 mice were exposed to differing amount of dextran sodium sulfate (DSS) in their drinking water for a four day period of time. The mice fecal hemoglobin measurements were made at the end of the four day period.

`Nc1ccc(O)c(C(=O)O)c1` [5ASA, 5-amino salicylic acid]: the “colonic inflammation as colon tissue weight per length” value in series [1] is reported as “partial reversal”. Further, in series [2] (50 mg/kg BID, 3 days post DSS), the “colon MPO activity (DSS-induced inflammation)” value is listed as “partially”, the “colon weight/length (DSS-induced mucosal edema)” value is on record as “partially reversed” and the “fecal hemoglobin (DSS-induced GI fecal blood loss)” value is given as “partially reversed”. The “overall recovery from DSS-induced colitis and GI bleeding (conclusion)” value in series [2] (50 mg/kg twice daily intragastrically) was “promotes tissue recovery from DSS-induced colitis and reduces GI bleeding”. Also, the “overall colonic inflammation and tissue injury / recovery from colitis (biochemical and histological markers, conclusions)” value in series [3] (100 mg/kg b.i.d., 3 to 6 days post-DSS) is “significantly reduces colonic inflammation and tissue injury”. Besides, the “number of inflammatory cells in lamina propia of colonic submucosa, score 1 (normal) to 4 (highly inflamed)” value in series [3] (3 and 6 days, 100 mg/kg b.i.d.) is “reduced number of inflammatory cells”. Moreover, the “tissue edema (tissue wet weight/unit length)” value in series [3] (3 days post-DSS, 100 mg/kg b.i.d., vs saline-treated controls) was “reduced by 5ASA (non significantly)”. Moreover, the “colonic myeloperoxidase (MPO) activity” value in series [3] (day 3, 100 mg/kg b.i.d.) is “reduction”. In series [3] (first day of the recovery period, 100 mg/kg b.i.d.), the “fecal hemoglobin (fecal blood loss)” value was “may have had a beneficial effect in reducing fecal blood loss”.

Regarding dextran sodium sulfate [DSS], in the series with C57BL/6 mice, the “colonic inflammation or edema as colon tissue weight per length” value was 3% DSS was shown to cause the greatest increase and the fecal hemoglobin result is on record as “increased fecal hemoglobin with increasing concentration”.
